Consider 24 compounds from patent US6187802A, “Substituted 4-arylmethylene-2-imino-2,3-dihydrothiazoles and derivatives and their pharmaceutical use” (Knoll Aktiengesellschaft, priority 1997, dated 2001).

Test [1] addresses T1, dopamine (DA) reuptake sites (Rattus norvegicus, UniProt P23977).
T1 construct: Striatal tissue from the brains of male Charles River rats weighing 150-250 g; from tissue; host or cells: rat brain striatum (crude synaptosomes in A1, washed membranes in A4)
The test can be described thus: displacement of [3H]GBR 12935 from dopamine reuptake sites, striatal membranes. It is filed as binding. To be noted: 10^-6 M test compound, [3H]GBR 12935 1 nM, one test only, read-out: DA uptake (% displacement of specific binding of tritiated ligand). The gist of the method: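 Rat striatal membranes (male rats, 150-250 g) incubated 90 min at 4 °C with 1 nM [3H]GBR 12935 in 50 mM Tris-HCl pH 7.4, 200 mM NaCl, 5 mM KCl; non-specific binding with 1 μM mazindol. Filtration, scintillation counting; value is % displacement of specific binding at 10^-6 M, single test; IA means <50%.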

For test [2], the target named is T2, 5-hydroxytryptamine (5-HT) reuptake sites (Rattus norvegicus, UniProt P31652).
T2 construct: Frontal cortical tissue from the brains of male Sprague-Dawley rats; from tissue; host or cells: rat brain frontal cortex (crude synaptosomes in A2, washed membranes in A5)
The test can be described thus: displacement of [3H]paroxetine from 5-HT reuptake sites, frontal cortical membranes. To be noted: 10^-6 M test compound, [3H]paroxetine 30 pM, one test only, read-out: 5-HT uptake (% displacement of specific binding of tritiated ligand). It is filed as binding. The gist of the method:
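Rat frontal cortex membranes (male, 150-250 g; 2 mg wet tissue/tube) in 50 mM Tris-HCl pH 7.5 with 120 mM NaCl and 5 mM KCl, incubated 2 h at 22 °C with 30 pM [3H]paroxetine and compound at 10^-6 M. Citalopram 1 μM defined non-specific binding; values are % displacement of specific binding from a single test, filtration and scintillation counting.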
In general terms: Loss of bound radioactivity is the signal in a displacement assay; it reports binding, not function.

Test [3] concerns the target T3, noradrenaline (NA) reuptake sites (Rattus norvegicus, UniProt Q63380).
T3 construct: Frontal cortical tissue from the brains of male Sprague-Dawley rats; from tissue; host or cells: rat brain frontal cortex (crude synaptosomes in A3, washed membranes in A6)
The test can be described thus: displacement of [3H]nisoxetine from noradrenaline reuptake sites, frontal cortical membranes. To be noted: 10^-6 M test compound, [3H]nisoxetine 0.6 nM, one test only, read-out: NA uptake (% displacement of specific binding of tritiated ligand). The gist of the method:
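Washed male rat frontal cortex membranes in 50 mM Tris pH 7.4, 300 mM NaCl, 5 mM KCl, incubated 4 h at 4 °C with 0.6 nM [3H]nisoxetine and test compound at 10^-6 M; mazindol (1 μM) defined non-specific binding. Filtration, scintillation counting; % displacement of specific binding, single test.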

Counter-ions that a name gives are not always drawn.

T1 sequence (P23977 whole entry): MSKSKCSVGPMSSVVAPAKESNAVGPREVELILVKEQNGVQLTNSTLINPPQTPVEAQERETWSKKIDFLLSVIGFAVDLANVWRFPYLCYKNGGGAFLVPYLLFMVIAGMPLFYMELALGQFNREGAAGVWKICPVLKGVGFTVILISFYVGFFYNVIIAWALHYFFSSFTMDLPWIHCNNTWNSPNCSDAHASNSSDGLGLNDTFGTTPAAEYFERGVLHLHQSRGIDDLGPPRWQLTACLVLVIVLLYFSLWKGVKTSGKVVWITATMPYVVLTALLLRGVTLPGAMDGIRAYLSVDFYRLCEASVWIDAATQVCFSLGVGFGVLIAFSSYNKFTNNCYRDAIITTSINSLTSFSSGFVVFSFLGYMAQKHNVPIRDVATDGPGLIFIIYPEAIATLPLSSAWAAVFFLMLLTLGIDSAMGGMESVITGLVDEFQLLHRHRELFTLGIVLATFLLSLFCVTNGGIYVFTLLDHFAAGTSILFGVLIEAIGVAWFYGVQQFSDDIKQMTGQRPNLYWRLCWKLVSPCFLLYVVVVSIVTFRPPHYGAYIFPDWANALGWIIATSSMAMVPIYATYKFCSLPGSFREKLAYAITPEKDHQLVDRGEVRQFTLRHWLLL
T2 sequence (P31652 whole entry): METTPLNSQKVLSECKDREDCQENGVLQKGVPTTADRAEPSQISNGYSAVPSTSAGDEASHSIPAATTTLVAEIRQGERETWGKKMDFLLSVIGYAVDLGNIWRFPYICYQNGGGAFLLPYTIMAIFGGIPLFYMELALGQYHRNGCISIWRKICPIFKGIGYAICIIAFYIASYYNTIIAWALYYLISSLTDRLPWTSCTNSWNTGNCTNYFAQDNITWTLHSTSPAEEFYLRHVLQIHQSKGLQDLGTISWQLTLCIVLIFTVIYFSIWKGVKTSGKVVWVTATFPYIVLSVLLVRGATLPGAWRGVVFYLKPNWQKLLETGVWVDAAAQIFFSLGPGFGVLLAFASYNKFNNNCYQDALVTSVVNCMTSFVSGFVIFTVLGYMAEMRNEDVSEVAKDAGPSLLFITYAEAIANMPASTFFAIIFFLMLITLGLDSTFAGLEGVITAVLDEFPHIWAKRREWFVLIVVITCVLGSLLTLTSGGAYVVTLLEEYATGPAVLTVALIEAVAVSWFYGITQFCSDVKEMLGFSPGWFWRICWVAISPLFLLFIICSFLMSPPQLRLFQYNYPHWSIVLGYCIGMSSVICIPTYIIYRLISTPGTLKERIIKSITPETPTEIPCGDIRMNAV
T3 sequence (Q63380 1-617): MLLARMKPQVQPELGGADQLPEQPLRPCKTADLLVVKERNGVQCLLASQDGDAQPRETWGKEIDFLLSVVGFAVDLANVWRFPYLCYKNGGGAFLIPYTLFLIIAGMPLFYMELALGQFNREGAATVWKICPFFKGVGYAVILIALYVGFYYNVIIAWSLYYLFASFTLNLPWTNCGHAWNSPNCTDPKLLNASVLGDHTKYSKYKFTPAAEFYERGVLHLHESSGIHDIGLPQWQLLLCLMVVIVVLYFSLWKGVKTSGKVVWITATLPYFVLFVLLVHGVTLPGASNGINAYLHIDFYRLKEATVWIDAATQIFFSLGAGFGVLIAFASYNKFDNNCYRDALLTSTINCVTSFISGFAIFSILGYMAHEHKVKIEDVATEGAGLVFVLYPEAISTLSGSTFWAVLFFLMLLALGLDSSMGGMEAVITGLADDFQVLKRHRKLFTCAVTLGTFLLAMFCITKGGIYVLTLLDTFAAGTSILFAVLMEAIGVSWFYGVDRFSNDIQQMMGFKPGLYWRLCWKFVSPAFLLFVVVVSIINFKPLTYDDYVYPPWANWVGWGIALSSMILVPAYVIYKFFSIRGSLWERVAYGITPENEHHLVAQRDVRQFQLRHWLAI

Take `CC(C)CN=c1scc(C2(c3ccc(Cl)c(Cl)c3)CCC2)n1CC(C)C` [Example 19, 4-[1-(3,4-Dichlorophenyl)cyclobutyl]-3-isobutyl-2-isobutylimino-2,3-dihydrothiazole hydrobromide]: the figures for the inhibition at 1 µM in test [1], in test [2] and in test [3] were 107%, 89% and under 50%, respectively.

For the compound `CCCCN=c1scc(C2(c3ccc(Br)cc3)CCC2)n1CCCC` [Example 57, 4-[1-(4-Bromophenyl)cyclobutyl]-3-butyl-2-butylimino-2,3-dihydrothiazole hydrobromide], the inhibition at 1 µM in test [1] is 94%; in test [2], under 50%; in test [3] it was under 50%.

Consider `Clc1ccc(C2(C3=CSC4=NCCN34)CCCC2)cc1Cl` [Example 6, 3-[1-(3,4-dichlorophenyl)cyclopentyl]-5,6-dihydroimidazo[2,1-b]thiazole hydrobromide], for which the values for the inhibition at 1 µM in test [1], in test [2] and in test [3] were 112%, 86% and 101%, respectively.

Take `FC(F)(F)c1cccc(N=c2scc(C3(c4ccc(Cl)c(Cl)c4)CCC3)n2-c2cccc(C(F)(F)F)c2)c1` [Example 30, 4-[1-(3,4-Dichlorophenyl)cyclobutyl]-3-(3-trifluoromethylphenyl)-2-(3-trifluoromethylphenylimino)-2,3-dihydrothiazole hydrobromide]: the results for the inhibition at 1 µM in test [1], in test [2] and in test [3] were 79%, under 50% and under 50%, respectively.

On to `C1=C(C2(c3cc4ccccc4s3)CCC2)N2CCN=C2S1` [Example 12, 3-[1-(benzo[b]thiophen-2-yl)cyclobutyl]-5,6-dihydroimidazo[2,1-b]thiazole hydrobromide], for which the inhibition at 1 µM in test [1] amounted to 121%; in test [2], 77%; in test [3], 95%.

As for `Clc1ccc(C2(C3=CSC4=NCCN34)CCCC2)cc1` [Example 71, 3-[1-(4-Chlorophenyl)cyclopentyl]-5,6-dihydroimidazo[2,1-b]thiazole hydrobromide], the inhibition at 1 µM is 96% in test [1], under 50% in test [2] and 76% in test [3].

As to `CCCCN=c1scc(C2(c3ccc(Cl)cc3)CCCC2)n1CCCC` [Example 60, 3-Butyl-2-butylimino-4-[1-(4-chlorophenyl)cyclopentyl]-2,3-dihydrothiazole hydrobromide], the inhibition at 1 µM in test [1] is 106%; in test [2], under 50%; in test [3], under 50%.

For the compound `CC(C)(C1=CSC2=NCCN12)c1ccc(Cl)cc1` [Example 73, 3-[1-(4-Chlorophenyl)-1-methylethyl]-5,6-dihydroimidazo[2,1-b]thiazole hydrobromide], the inhibition at 1 µM in test [1] is 59%; in test [2], under 50%; in test [3], under 50%.

Regarding `Cc1ccc(N=c2scc(C3(c4ccc(Cl)c(Cl)c4)CCC3)n2-c2ccc(C)cc2C)c(C)c1` [Example 31, 4-[1-(3,4-Dichlorophenyl)cyclobutyl]-3-(2,4-xylyl)-2-(2,4-xylylimino)-2,3-dihydrothiazole hydrobromide], the inhibition at 1 µM was 63% in test [1], under 50% in test [2] and under 50% in test [3].

As for `COc1ccc(CCN=c2scc(C3(c4ccc5ccccc5c4)CCC3)n2CCc2ccc(OC)c(OC)c2)cc1OC` [Example 55, 3-(3,4-Dimethoxyphenethyl)-2-(3,4-dimethoxyphenethylimino)-4-[1-(2-naphthyl)cyclobutyl]-2,3-dihydrothiazole hydrobromide], the inhibition at 1 µM in test [1] was 91%; in test [2] it was under 50%; in test [3], under 50%.

With `c1coc(CN=c2scc(C3(c4ccc5ccccc5c4)CCC3)n2Cc2ccco2)c1` [Example 48, 3-Furfuryl-2-furfurylimino-4-[1-(2-naphthyl)cyclobutyl]-2,3-dihydrothiazolehydrobromide], the inhibition at 1 µM in test [1] was 101%; in test [2] it was 94%; in test [3], under 50%.

`CCCCN=c1scc(C(C)(C)c2ccc(Cl)cc2)n1CCCC` [Example 62, 3-Butyl-2-butylimino-4-[1-(4-chlorophenyl)-1-methylethyl]-2,3-dihydrothiazole hydrobromide]: the inhibition at 1 µM in test [1] is 55%; in test [2], under 50%; in test [3], under 50%.

As for `CCCCN=c1scc(C2(c3ccc(Oc4ccccc4)cc3)CCC2)n1CCCC` [Example 59, 3-Butyl-2-butylimino-4-[1-(4-phenoxyphenyl)cyclobutyl]-2,3-dihydrothiazole hydrobromide], the results for the inhibition at 1 µM in test [1], in test [2] and in test [3] were 73%, under 50% and under 50%, respectively.

Take `CCCCN=c1scc(C2(c3ccccc3)CCCCC2)n1CCCC` [Example 61, 3-Butyl-2-butylimino-4-(1-phenylcyclohexyl)-2,3-dihydrothiazole hydrobromide]: the figures for the inhibition at 1 µM in test [1], in test [2] and in test [3] were 68%, under 50% and under 50%, respectively.

Regarding `Clc1ccc(C2(c3csc(=Nc4ccccc4)n3-c3ccccc3)CCC2)cc1Cl` [Example 27, 4-[1-(3,4-Dichlorophenyl)cyclobutyl]-3-phenyl-2-phenylimino-2,3-dihydrothiazole hydrobromide], the inhibition at 1 µM in test [1] is 84%; in test [2], under 50%; in test [3], under 50%.

For `Clc1ccc(C2(c3csc(=NCc4ccco4)n3Cc3ccco3)CCC2)cc1Cl` [Example 26, 4-[1-(3,4-Dichlorophenyl)cyclobutyl]-3-furfuryl-2-furfurylimino-2,3-dihydrothiazole hydrobromide], the inhibition at 1 µM in test [1] is 116%; in test [2], 92%; in test [3], under 50%.

As for `CCCN=c1scc(C2(c3ccc4ccccc4c3)CCC2)n1CCC` [Example 38, 4-[-(2-Naphthyl)cyclobutyl]-3-propyl-2-propylimino-2,3-dihydrothiazole hydrobromide], the inhibition at 1 µM was determined as 111% in test [1], 102% in test [2] and 95% in test [3].

On to `COc1ccc(CCN=c2scc(C3(c4ccc(Cl)cc4)CCCC3)n2CCc2ccc(OC)c(OC)c2)cc1OC` [Example 67, 4-[1-(4-Chlorophenyl)cyclopentyl]-3-(3,4-dimethoxyphenethyl)-2-(3,4-dimethoxyphenethylimino)-2,3-dihydrothiazole hydrobromide], for which the inhibition at 1 µM is 88% in test [1], under 50% in test [2] and under 50% in test [3].

`CN=c1scc(C2(c3ccc4ccccc4c3)CCC2)n1C` [Example 36, 3-Methyl-2-methylimino-4-[1-(2-naphthyl)cyclobutyl]-2,3-dihydrothiazole hydrobromide]: the inhibition at 1 µM in test [1] came out at 108%; in test [2], 101%; in test [3], 101%.

For `C1=C(C2(c3ccccc3)CCCCC2)N2CCN=C2S1` [Example 72, 3-(1-Phenylcyclohexyl)-5,6-dihydroimidazo[2,1-b]thiazole hydrobromide], the inhibition at 1 µM is 70% in test [1], under 50% in test [2] and under 50% in test [3].

`CCCN=c1scc(C2(c3ccc(Cl)c(Cl)c3)CCC2)n1CCC` [Example 16, 4-[1-(3,4-Dichlorophenyl)cyclobutyl]-3-propyl-2-propylimino-2,3-dihydrothiazole hydrobromide]: the figures for the inhibition at 1 µM in test [1], in test [2] and in test [3] were 116%, 102% and 56%, respectively.

As for `Clc1ccc(C2(c3csc(=NCC4CC4)n3CC3CC3)CCC2)cc1Cl` [Example 21, 4-[1-(3,4-Dichlorophenyl)cyclobutyl]-3-cyclopropylmethyl-2-cyclopropylmethylimino-2,3-dihydrothiazole hydrobromide], the inhibition at 1 µM in test [1] is 108%; in test [2] it was 103%; in test [3], 50%.

With `C1=C(C2(c3ccc4ccccc4c3)CCC2)N2CCCN=C2S1` [Example 34, 3-[1-(2-Naphthyl)cyclobutyl]-6,7-dihydro-5H-thiazolo[3,2-a]pyrimidine hydrobromide], the inhibition at 1 µM in test [1] was 109%; in test [2], 100%; in test [3], 110%.

Turning to `c1ccc(CCN=c2scc(C3(c4ccc5ccccc5c4)CCC3)n2CCc2ccccc2)cc1` [Example 46, 4-1-(2-Naphthyl)cyclobutyl]-3-phenethyl-2-phenethylimino-2,3-dihydrothiazole hydrobromide], the inhibition at 1 µM in test [1] was 98%; in test [2], 51%; in test [3], under 50%.
